Experimental data reported in patent US8318186B2, “Use of at least a fatty ester for preparing a composition designed to inhibit 5-α-reductase activity, in pharmacology, in particular dermatology, in cosmetics and as food additive” (Laboratoires Expanscience, priority 2000, dated 2012).
Values joined by “and” are separate entries in the source; they are usually repeats but may differ in a detail not shown here. Equal entries are not always repeated. Marks after values point to notes of the source that are not given here.

Test system: 5α-reductase
Test: Fatty acid esters on 5α-reductase activity, conversion of testosterone to 5α-dihydrotestosterone in normal human dermal fibroblast cultures (Example 4)
Assay type: cell-based
Parameters: key to group by 5α-reductase inhibitory activity: group A with the highest inhibitory activity; group B with an intermediate inhibitory activity
Conditions: for inhibition of the 5α-reductase activity: Example 4, p<0.05; for 5α-DHT formed per culture well, mean / 5α-DHT formed per culture well, single well: after 24 of incubation, DMSO 0.1% (v/v); for 5α-DHT formed per culture well, single well: single replicate; for group by 5α-reductase inhibitory activity: tested at 1, 10 and 100 μg/ml
Protocol: The fibroblast culture medium (FCM) consisted of MEM/M199 (3:1, v/v) supplemented with penicillin (50 IU/ml), streptomycin (50 μg/ml), sodium bicarbonate (0.2%, w/v) and FCS (10%, v/v).
The assay system consisted of normal human dermal fibroblasts cultured as a monolayer. The fibroblasts were isolated from a residue from abdominal plastic surgery performed on a person (subject BIOPREDIC No. I0013). The cells were used at the fifth passage; they were cultured until the monolayers were confluent in FCM medium at 37° C. in a humid atmosphere containing 5% CO2.
The fibroblast incubation medium (FIM) consisted of FCM supplemented with tritiated testosterone (1.6×10^−7 M, that is 6.32 μCi/ml) and nonradiolabeled testosterone (3.84×10^−6 M)
The test products and finasteride were taken up in DMSO before being diluted in the incubation medium. […]
The fibroblast cultures were preincubated in the presence of the test products or of the reference product for 2 hours before adding the substrate, testosterone. For this step, the test products and the reference product were prepared in the FCM medium.
After preincubation, the fibroblast cultures were incubated in the presence of the test products or of the reference product prepared in the FIM medium for 22 hours at 37° C. in a humid atmosphere containing 5% CO2. Control cultures were incubated in the FIM medium in the absence of test products and of reference product. […]
Each experimental condition was tested in triplicate.
After the incubation period, the cells were subjected to the action of ultrasound in the FIM medium. The cellular lysates thus obtained were extracted with dichloromethane. After evaporation, the dry residues were taken up in methanol and were deposited on 60F254 silica plates (MERCK, reference 5554).
The migration solvent was a mixture of dichloromethane and ether (7:3, v/v) At the end of the migration, the silica plates were read using a BERTHOLD radioactivity scanner.
The metabolizing of testosterone to 5α-dihydro-testosterone under the various experimental conditions was calculated: the results (areas of the 5α-dihydrotestosterone peaks counted by the BERTHOLD scanner) were expressed in pmol of 5α-dihydro-testosterone formed per culture well. They were also expressed as a percentage of the 5α-reductase activity present in the “DMSO control” group.
The groups of data (control group and treated groups) were treated by a one-way analysis of variance (ANOVA 1, p<0.05), followed by a DUNNETT's test (p<0.05). The effect of the test products and of the reference product was compared with the “DMSO control” group. The effects of the test products were compared to each other by a two-way analysis of variance (ANOVA 2, p<0.05, factor 1=concentration and factor 2=treatment).
The same materials and methods are used as in example 3 above.
It was proposed to evaluate the effect of fatty acid esters on the 5α-reductase activity. An in vitro model of normal human dermal fibroblast cultures was selected. The products tested were chosen from the group of fatty acid esters varying in the length and the functionality of the fatty chain, and the nature of the alkoxy group. These esters are the following: methyl oleate, methyl linoleate, methyl stearate, methyl laurate, methyl undecylenate, butyl oleate, oleyl oleate and methyl ricinoleate.

SMILES	5α-reductase activity as percentage of the “DMSO 0.1% (v/v)” group (1 μg/ml)	inhibition of the 5α-reductase activity (1 μg/ml) [%]	5α-DHT formed per culture well, mean (1 μg/ml)	5α-DHT formed per culture well, single well (1 μg/ml)	5α-reductase activity as percentage of the “DMSO 0.1% (v/v)” group (10 μg/ml)	inhibition of the 5α-reductase activity (10 μg/ml) [%]	5α-DHT formed per culture well, mean (10 μg/ml)	5α-DHT formed per culture well, single well (10 μg/ml)	5α-reductase activity as percentage of the “DMSO 0.1% (v/v)” group (100 μg/ml)	inhibition of the 5α-reductase activity (100 μg/ml) [%]	5α-DHT formed per culture well, mean (100 μg/ml)	5α-DHT formed per culture well, single well (100 μg/ml)	group by 5α-reductase inhibitory activity
CCCCCCCC/C=C\CCCCCCCC(=O)OCCCC [Butyl oleate, butyl oleate]	79 percentage of the “DMSO 0.1% (v/v)” group	21	9.00* +/− pmol of 5α-DHT formed/culture well	10.64 pmol of 5α-DHT formed/culture well and 8.28 pmol of 5α-DHT formed/culture well and 8.08 pmol of 5α-DHT formed/culture well	55 percentage of the “DMSO 0.1% (v/v)” group	45	6.21* +/− pmol of 5α-DHT formed/culture well	6.24 pmol of 5α-DHT formed/culture well and 5.04 pmol of 5α-DHT formed/culture well and 7.36 pmol of 5α-DHT formed/culture well	51 percentage of the “DMSO 0.1% (v/v)” group	49	5.77* +/− pmol of 5α-DHT formed/culture well	5.20 pmol of 5α-DHT formed/culture well and 6.72 pmol of 5α-DHT formed/culture well and 5.40 pmol of 5α-DHT formed/culture well	A
CCCCC/C=C\C/C=C\CCCCCCCC(=O)OC [Methyl linoleate, methyl linoleate]	58 percentage of the “DMSO 0.1% (v/v)” group	42	6.60* +/− pmol of 5α-DHT formed/culture well	7.04 pmol of 5α-DHT formed/culture well and 6.40 pmol of 5α-DHT formed/culture well and 6.36 pmol of 5α-DHT formed/culture well	60 percentage of the “DMSO 0.1% (v/v)” group	40	6.87* +/− pmol of 5α-DHT formed/culture well	6.00 pmol of 5α-DHT formed/culture well and 6.60 pmol of 5α-DHT formed/culture well and 8.00 pmol of 5α-DHT formed/culture well	71 percentage of the “DMSO 0.1% (v/v)” group	29	8.05* +/− pmol of 5α-DHT formed/culture well	8.56 pmol of 5α-DHT formed/culture well and 8.04 pmol of 5α-DHT formed/culture well and 7.56 pmol of 5α-DHT formed/culture well	B
C=CCCCCCCCCC(=O)OC [Methyl undecylenate, methyl undecylenate]	60 percentage of the “DMSO 0.1% (v/v)” group	40	6.89* +/− pmol of 5α-DHT formed/culture well	6.56 pmol of 5α-DHT formed/culture well and 7.44 pmol of 5α-DHT formed/culture well and 6.68 pmol of 5α-DHT formed/culture well	68 percentage of the “DMSO 0.1% (v/v)” group	32	7.71* +/− pmol of 5α-DHT formed/culture well	7.68 pmol of 5α-DHT formed/culture well and 7.84 pmol of 5α-DHT formed/culture well and 7.60 pmol of 5α-DHT formed/culture well	74 percentage of the “DMSO 0.1% (v/v)” group	26	8.48* +/− pmol of 5α-DHT formed/culture well	8.68 pmol of 5α-DHT formed/culture well and 7.76 pmol of 5α-DHT formed/culture well and 9.00 pmol of 5α-DHT formed/culture well	B
CCCCCCCCCCCCCCCCCC(=O)OC [Methyl stearate, methyl stearate]	59 percentage of the “DMSO 0.1% (v/v)” group	41	6.69* +/− pmol of 5α-DHT formed/culture well	6.92 pmol of 5α-DHT formed/culture well and 6.08 pmol of 5α-DHT formed/culture well and 7.08 pmol of 5α-DHT formed/culture well	65 percentage of the “DMSO 0.1% (v/v)” group	35	7.43* +/− pmol of 5α-DHT formed/culture well	8.80 pmol of 5α-DHT formed/culture well and 6.72 pmol of 5α-DHT formed/culture well and 6.76 pmol of 5α-DHT formed/culture well	57 percentage of the “DMSO 0.1% (v/v)” group	43	6.52* +/− pmol of 5α-DHT formed/culture well	6.88 pmol of 5α-DHT formed/culture well and 5.92 pmol of 5α-DHT formed/culture well and 6.76 pmol of 5α-DHT formed/culture well	B
CCCCCCCCCCCC(=O)OC [Methyl laurate, methyl laurate]	57 percentage of the “DMSO 0.1% (v/v)” group	–	6.49* +/− pmol of 5α-DHT formed/culture well	5.76 pmol of 5α-DHT formed/culture well and 6.88 pmol of 5α-DHT formed/culture well and 6.84 pmol of 5α-DHT formed/culture well	77 percentage of the “DMSO 0.1% (v/v)” group	–	8.75 pmol of 5α-DHT formed/culture well	6.84 pmol of 5α-DHT formed/culture well and 9.88 pmol of 5α-DHT formed/culture well and 9.52 pmol of 5α-DHT formed/culture well	86 percentage of the “DMSO 0.1% (v/v)” group	–	9.80 pmol of 5α-DHT formed/culture well	8.48 pmol of 5α-DHT formed/culture well and 11.96 pmol of 5α-DHT formed/culture well and 8.96 pmol of 5α-DHT formed/culture well	B
CCCCCC[C@@H](O)C/C=C\CCCCCCCC(=O)OC [Methyl ricinoleate, methyl ricinoleate]	63 percentage of the “DMSO 0.1% (v/v)” group	37	7.19* +/− pmol of 5α-DHT formed/culture well	6.52 pmol of 5α-DHT formed/culture well and 8.36 pmol of 5α-DHT formed/culture well and 6.68 pmol of 5α-DHT formed/culture well	62 percentage of the “DMSO 0.1% (v/v)” group	38	7.04* +/− pmol of 5α-DHT formed/culture well	7.84 pmol of 5α-DHT formed/culture well and 7.40 pmol of 5α-DHT formed/culture well and 5.88 pmol of 5α-DHT formed/culture well	38 percentage of the “DMSO 0.1% (v/v)” group	62	4.33* +/− pmol of 5α-DHT formed/culture well	3.68 pmol of 5α-DHT formed/culture well and 4.52 pmol of 5α-DHT formed/culture well and 4.80 pmol of 5α-DHT formed/culture well	A
